{"source": "paper PMC3986099", "about": "“Development of a Radioiodinated Triazolopyrimidine Probe for Nuclear Medical Imaging of Fatty Acid Binding Protein 4” (PLoS ONE, 2014)", "key": {"[1]": {"test_system": "3T3-L1 preadipocytes and differentiated adipocytes", "assay": "Cell uptake study in adipocytes and preadipocytes", "type": "cell-based, Murine", "conditions": "37 °C, 1 hr", "experimental": "Murine 3T3-L1 preadipocytes were obtained from ATCC and cultured in Dulbecco's Modified Eagle Medium (Nissui Pharmaceutical Co., Ltd.) supplemented with 10% heat-inactivated fetal bovine serum, 50 U/ml penicillin and 50 μg/ml streptomycin at 37 °C in 5% CO2. For cell uptake assay, differentiation of 3T3-L1 cells was performed as described previously. Briefly, two days after confluence, the medium was replaced with DMEM containing 10% FBS and inducers ([…], 10 μg/ml insulin, 0.5 mM 3-isobutyl-1-methylxanthine and 10 μM pioglitazone hydrochloride) for 2 days. The medium was then changed to DMEM supplemented with 10% FBS, 10 μg/ml insulin and 10 μM pioglitazone hydrochloride, and then incubated for 2 days. Then, the medium was changed to DMEM supplemented with 10% FBS and 10 μM pioglitazone hydrochloride every other day. After 8-10 days, the differentiated adipocytes were used for experiments.\nFor the cell uptake study using adipocytes, the medium of 24-well plate, in which the differentiated adipocytes or undifferentiated 3T3-L1 cells are cultured, was removed. […] Following the measurement of the radioactivity of collected cell lysate with a well-type γ-counter, protein determination was performed. […] Binding ratios were calculated as (radioactivity in collected cells)/(total applied radioactivity)/(protein abundance) x 100 (%Dose/mg protein)."}, "FABP4": {"biological_target": "T1, FABP4 (Homo sapiens, UniProt P15090)", "T1 construct": "purchased Cayman Chemical Company", "T1 sequence (P15090 whole entry)": "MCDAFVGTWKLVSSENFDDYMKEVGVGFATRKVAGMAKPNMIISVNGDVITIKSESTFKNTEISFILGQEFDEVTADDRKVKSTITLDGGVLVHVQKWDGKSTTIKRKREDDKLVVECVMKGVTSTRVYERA", "assay": "Saturation binding assay, Scatchard analysis", "conditions": "immobilized FABP4", "experimental": "For the saturation assay, a mixture solution of [^125I]TAP1 (0.3–9.5 MBq) was prepared by mixing nonradioactive TAP1 (0.0125–0.4 µM) in interaction buffer (2.5% ethanol and 5% DMSO, v/v). Nonspecific binding was defined in the presence of 0.09 mg/ml [^125I]TAP1 including nonradioactive TAP1. After FABP4 immobilization as described above, 0.4 ml interaction buffer and 0.05 ml mixture solution were added, and the mixture was incubated at room temperature for 2 hr. After incubation, the supernatants were removed and the beads were washed with interaction buffer (5% ethanol, v/v). The radioactivity of beads in the tubes was then measured with a well-type γ-counter. The dissociation constant (K d) of [^125I]TAP1 for FABP4 was determined by Scatchard analysis using GraphPad Prism."}}}
{"smiles": "O=c1cc(COc2cccc([125I])c2)[nH]c2nc(-c3ccccc3)nn12", "note": "[[^125I]TAP1]", "values": [{"measurement": "uptake into adipocytes (FABP4 positive) vs 3T3-L1 preadipocytes (FABP4 negative)", "setting": "[1]", "result": "significantly higher"}, {"measurement": "Kd", "setting": "FABP4", "result": "69.1 ± 12.3", "unit": "nM"}]}
